In patent US11091478B2 (Fochon Pharmaceuticals, Ltd., priority 2017, dated 2021):

Columns and labels:
[1] = test system: DOHH2 cells; assay: Cell proliferation assay (MTS), DOHH2 cells, 120 h; type: cell-based; details: Homo sapiens, DOHH-2, 120 h
In short: (§1)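 Proliferation was scored by MTS (2 h, then SDS stop, A490 with 650 nm reference) and IC50 derived. Compound ran at nine final concentrations from 1.5 to 10000 nM. DOHH2 were incubated 120 h and RS4;11 72 h, both plated at 5000 cells/well in RPMI-1640 plus 10% FBS.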

[2] = test system: RS4;11 cells; assay: Cell proliferation assay (MTS), RS4;11 cells, 72 h; type: cell-based; details: Homo sapiens, RS4-11, 72 h
In short: as §1

Row | SMILES | IC50 [1] | IC50 [2]
1 | CC1(C)CCC(CN2CCN(c3ccc(C(=O)NS(=O)(=O)c4cc5c(c([N+](=O)[O-])c4)N[C@@H](CN4CCOCC4)CN5)c(Oc4cnc5[nH]ccc5c4)c3)CC2)=C(c2ccc(Cl)cc2)C1 [Example 4-4, (R)-2-((1H-pyrrolo[2,3-b]pyridin-5-yl)oxy)-4-(4-((4′-chloro-5,5-dimethyl-3,4,5,6-tetra-hydro-[1,1′-biphenyl]-2-yl)methyl)piperazin-1-yl)-N-((2-(morpholinomethyl)-8-nitro-1,2,3,4-tetrahydroquinoxalin-6-yl)sulfonyl) benzamide] | 28 nM | 14 nM
2 | CC1(C)CCC(CN2CCN(c3ccc(C(=O)NS(=O)(=O)c4cc5c(c([N+](=O)[O-])c4)O[C@H](CN4CCOCC4)CO5)c(Oc4cnc5[nH]ccc5c4)c3)CC2)=C(c2ccc(Cl)cc2)C1 [Example 5-3, (R)-2-((1H-pyrrolo[2,3-b]pyridin-5-yl)oxy)-4-(4-((4′-chloro-5,5-dimethyl-3,4,5,6-tetrahydro-[1,1′-biphenyl]-2-yl)methyl)piperazin-1-yl)-N-((2-(morpholinomethyl)-8-nitro-2,3-dihydrobenzo[b][1,4]dioxin-6-yl)sulfonyl)benzamide] | 12 nM | 4 nM
3 | CC1(C)CCC(CN2CCN(c3ccc(C(=O)NS(=O)(=O)c4cc5c(c([N+](=O)[O-])c4)N[C@H](CN4CCCCC4)CO5)c(Oc4cnc5[nH]ccc5c4)c3)CC2)=C(c2ccc(Cl)cc2)C1 [Example 2-84, (R)-2-((1H-pyrrolo[2,3-b]pyridin-5-yl)oxy)-4-(4-((4′-chloro-5,5-dimethyl-3,4,5,6-tetra-hydro-[1,1′-biphenyl]-2-yl)methyl)piperazin-1-yl)-N-((5-nitro-3-(piperidin-1-ylmethyl)-3,4-dihydro-2H-benzo[b][1,4]oxazin-7-yl)sulfonyl)benzamide] | 82 nM | 26 nM
4 | CN=S1(=O)CCN(CC[C@@H]2COc3cc(S(=O)(=O)NC(=O)c4ccc(N5CCN(CC6=C(c7ccc(Cl)cc7)CC(C)(C)CC6)CC5)cc4Oc4cnc5[nH]ccc5c4)cc([N+](=O)[O-])c3N2)CC1 [Example 2-127] | 42 nM | 23 nM
5 | CC1(C)CCC(CN2CCN(c3ccc(C(=O)NS(=O)(=O)c4cc5c(c([N+](=O)[O-])c4)N[C@@H](Cc4ccncc4)CO5)c(Oc4cnc5[nH]ccc5c4)c3)CC2)=C(c2ccc(Cl)cc2)C1 [Example 2-164] | 16 nM | 34 nM
6 | CC1(C)CCC(CN2CCN(c3ccc(C(=O)NS(=O)(=O)c4cc5c(c([N+](=O)[O-])c4)N[C@@H](CO)CO5)c(Oc4cnc5[nH]ccc5c4)c3)CC2)=C(c2ccc(Cl)cc2)C1 [Example 2-220, (S)-2-((1H-pyrrolo[2,3-b]pyridin-5-yl)oxy)-4-(4-((4′-chloro-5,5-dimethyl-3,4,5,6-tetra-hydro-[1,1′-biphenyl]-2-yl)methyl)piperazin-1-yl)-N-((3-(hydroxymethyl)-5-nitro-3,4-dihydro-2H-benzo[b][1,4]oxazin-7-yl)sulfonyl)benzamide] | 36 nM | 8 nM
7 | CC1(C)CCC(CN2CCN(c3ccc(C(=O)NS(=O)(=O)c4cc5c(c([N+](=O)[O-])c4)N[C@@H](CCNC(=O)C4CCOCC4)CO5)c(Oc4cnc5[nH]ccc5c4)c3)CC2)=C(c2ccc(Cl)cc2)C1 [Example 2-56, (S)-N-(2-(7-(N-(2-((1H-pyrrolo[2,3-b]pyridin-5-yl)oxy)-4-(4-((4′-chloro-5,5-dimethyl-3,4,5,6-tetrahydro-[1,1′-biphenyl]-2-yl)meth-yl)piperazin-1-yl)benzoyl)sulfamoyl)-5-nitro-3,4-dihydro-2H-benzo[b][1,4]oxazin-3-yl)ethyl)tetrahydro-2H-pyran-4-carboxamide] | 571 nM | 41 nM
8 | CC1(C)CCC(CN2CCN(c3ccc(C(=O)NS(=O)(=O)c4cc5c(c([N+](=O)[O-])c4)N[C@H](c4ccc(F)cc4)CO5)c(Oc4cnc5[nH]ccc5c4)c3)CC2)=C(c2ccc(Cl)cc2)C1 [Example 2-166, (R)-2-((1H-pyrrolo[2,3-b]pyridin-5-yl)oxy)-4-(4-((4′-chloro-5,5-dimethyl-3,4,5,6-tetra-hydro-[1,1′-biphenyl]-2-yl)methyl)piperazin-1-yl)-N-((3-(4-fluorophenyl)-5-nitro-3,4-dihydro-2H-benzo[b][1,4]oxazin-7-yl)sulfo-nyl)benzamide] | 300 nM | 82 nM
9 | COC[C@@H]1CSc2cc(S(=O)(=O)NC(=O)c3ccc(N4CCN(CC5=C(c6ccc(Cl)cc6)CC(C)(C)CC5)CC4)cc3Oc3cnc4[nH]ccc4c3)cc([N+](=O)[O-])c2N1 [Example 3-6, (R)-2-((1H-pyrrolo[2,3-b]pyridin-5-yl)oxy)-4-(4-((4′-chloro-5,5-dimethyl-3,4,5,6-tetra-hydro-[1,1′-biphenyl]-2-yl)methyl)piperazin-1-yl)-N-((3-(methoxymethyl)-5-nitro-3,4-dihydro-2H-benzo[b][1,4]thiazin-7-yl)sulfonyl)benzamide] | 14 nM | 8 nM
10 | CC1(C)CCC(CN2CCN(c3ccc(C(=O)NS(=O)(=O)c4cc5c(c([N+](=O)[O-])c4)N[C@H](c4ccc(S(C)(=O)=O)cc4)CO5)c(Oc4cnc5[nH]ccc5c4)c3)CC2)=C(c2ccc(Cl)cc2)C1 [Example 2-175, (R)-2-((1H-pyrrolo[2,3-b]pyridin-5-yl)oxy)-4-(4-((4′-chloro-5,5-dimethyl-3,4,5,6-tetra-hydro-[1,1′-biphenyl]-2-yl)methyl)piperazin-1-yl)-N-((3-(4-(methylsulfonyl)phenyl)-5-nitro-3,4-dihydro-2H-benzo[b][1,4]oxazin-7-yl)sulfonyl)benzamide] | 139 nM | 53 nM
11 | C[C@@H]1CN(C[C@H]2COc3cc(S(=O)(=O)NC(=O)c4ccc(N5CCN(CC6=C(c7ccc(Cl)cc7)CC(C)(C)CC6)CC5)cc4Oc4cnc5[nH]ccc5c4)cc([N+](=O)[O-])c3N2)CCN1C1COC1 [Example 2-29, 2-((1H-pyrrolo[2,3-b]pyridin-5-yl)oxy)-4-(4-((4′-chloro-5,5-dimethyl-3,4,5,6-tetrahydro-[1,1′-biphenyl]-2-yl)methyl)piperazin-1-yl)-N-(((S)-3-(((R)-3-methyl-4-(oxetan-3-yl)piperazin-1-yl)methyl)-5-nitro-3,4-dihydro-2H-benzo[b][1,4]oxazin-7-yl)sulfonyl) benzamide] | 7 nM | 1 nM
12 | CC1(C)CCC(CN2CCN(c3ccc(C(=O)NS(=O)(=O)c4cc5c(c([N+](=O)[O-])c4)N[C@H](CN4CCC(NS(C)(=O)=O)CC4)CO5)c(Oc4cnc5[nH]ccc5c4)c3)CC2)=C(c2ccc(Cl)cc2)C1 [Example 2-151, (R)-2-((1H-pyrrolo[2,3-b]pyridin-5-yl)oxy)-4-(4-((4′-chloro-5,5-dimethyl-3,4,5,6-tetra-hydro-[1,1′-biphenyl]-2-yl)methyl)piperazin-1-yl)-N-((3-((4-(methylsulfonamido)pi-peridin-1-yl)methyl)-5-nitro-3,4-dihydro-2H-benzo[b][1,4]oxazin-7-yl)sulfonyl)benzamide] | 2 nM | 1 nM
13 | CC1(C)CCC(CN2CCN(c3ccc(C(=O)NS(=O)(=O)c4cc5c(c([N+](=O)[O-])c4)N[C@@H](CCN4CCS(=O)(=O)CC4)CO5)c(Oc4cnc5[nH]ccc5c4)c3)CC2)=C(c2ccc(Cl)cc2)C1 [Example 2-153, (S)-2-((1H-pyrrolo[2,3-b]pyridin-5-yl)oxy)-4-(4-((4′-chloro-5,5-dimethyl-3,4,5,6-tetra-hydro-[1,1′-biphenyl]-2-yl)methyl)piperazin-1-yl)-N-((3-(2-(1,1-dioxidothiomorpholino)ethyl)-5-nitro-3,4-dihydro-2H-benzo[b] [1,4]oxazin-7-yl)sulfonyl)benzamide] | 8 nM | 1 nM
14 | CN1CCN(CC[C@@H]2COc3cc(S(=O)(=O)NC(=O)c4ccc(N5CCN(CC6=C(c7ccc(Cl)cc7)CC(C)(C)CC6)CC5)cc4Oc4cnc5[nH]ccc5c4)cc([N+](=O)[O-])c3N2)CC1 [Example 2-14, (R)-2-((1H-pyrrolo[2,3-b]pyridin-5-yl)oxy)-4-(4-((4′-chloro-5,5-dimethyl-3,4,5,6-tetra-hydro-[1,1′-biphenyl]-2-yl)methyl)piperazin-1-yl)-N-((3-(2-(4-methylpiperazin-1-yl)eth-yl)-5-nitro-3,4-dihydro-2H-benzo[b][1,4]oxazin-7-yl)sulfonyl)benzamide] | 15 nM | 4 nM
15 | CC1(C)CCC(CN2CCN(c3ccc(C(=O)NS(=O)(=O)c4cc5c(c([N+](=O)[O-])c4)N[C@@H](CCN=S4(=O)CCOCC4)CO5)c(Oc4cnc5[nH]ccc5c4)c3)CC2)=C(c2ccc(Cl)cc2)C1 [Example 2-78, (S)-2-((1H-pyrrolo[2,3-b]pyridin-5-yl)oxy)-4-(4-((4′-chloro-5,5-dimethyl-3,4,5,6-tetra-hydro-[1,1′-biphenyl]-2-yl)methyl)piperazin-1-yl)-N-((5-nitro-3-(2-((4-oxido-1,4λ^6-ox-athian-4-ylidene)amino)ethyl)-3,4-dihydro-2H-benzo[b][1,4]oxazin-7-yl)sulfonyl)ben-zamide] | 15 nM | 6 nM
16 | CC1(C)CCC(CN2CCN(c3ccc(C(=O)NS(=O)(=O)c4cc5c(c([N+](=O)[O-])c4)N[C@@H](CN4CCC(N=S(C)(C)=O)CC4)CO5)c(Oc4cnc5[nH]ccc5c4)c3)CC2)=C(c2ccc(Cl)cc2)C1 [Example 2-125, (S)-2-((1H-pyrrolo[2,3-b]pyridin-5-yl)oxy)-4-(4-((4′-chloro-5,5-dimethyl-3,4,5,6-tetra-hydro-[1,1′-biphenyl]-2-yl)methyl)piperazin-1-yl)-N-((3-((4-((dimethyl(oxo)-λ^6-sulfanyl-idene)amino)piperidin-1-yl)methyl)-5-nitro-3,4-dihydro-2H-benzo[b][1,4]oxa-zin-7-yl)sulfonyl)benzamide] | 43 nM | 19 nM
